Values after ≈ are worked out from the molar mass of the structure shown. Read-outs that look alike come from different tables or passages of the source.

One experiment deals with Plasmodium falciparum K1. The experiment is described as follows: Growth inhibition of Plasmodium falciparum K1 (chloroquine-resistant) in vitro, [G-3H]-hypoxanthin incorporation. Format: cell-based, Plasmodium falciparum (strain K1). The following applies: for IC50: Plasmodium falciparum, K1, 72 h, read-out: IC50 for P. falciparum K1; for Resistance index: ratio of the IC50 for K1 and the IC50 for NF54. From the text:
(§1) The ratio of the growth inhibition of a strain which is especially resistant to chloroquine and of a strain which is sensitive to chloroquine gives as the "resistance index" a measurement for the absence of a cross-resistance with chloroquine. Since, for all novel compounds the resistance index lies between 0.7 and 2.5, they inhibit the growth of sensitive as well as resistant strains of the malaria pathogen equally effectively. They are accordingly also suitable for the prophylaxis of a malaria disease and also for the treatment of a malaria disease even when chloroquine is ineffective. The good activity against malaria pathogens is also shown in animal experiments. The effective doses measured after oral and subcutaneous administration to mice infected with malaria pathogens are shown in Table 2 hereinafter.
(§2) Test method for the determination of the activity against Plasmodium falciparum in vitro
(§3) The preparations are tested on intraerythrocytary stages of Plasmodium falciparum from asynchronous cultures according to the method of Desjardin et al. (Desjardins, R. E. et al: Quantitative assessment of antimalarial activity in vitro by a semiautomated microdilution technique. Antimicrob. Agents Chemother. 16, 710-718, (1979)).
(§4) The culture medium consists of RPMI 1640 with the addition of 25 mM HEPES, 25 mM NaHCO3, 100 μg/ml neomycin and […] (A^+). Human-A^+ erythrocytes are used as the Plasmodium falciparum host cells. The parasites are maintained at 37° C. in an atmosphere of 3% O2, 4% CO2, 93% N2 and 95% relative humidity.
(§5) In order to determine the activity, the preparations are dissolved in DMSO, pre-diluted in the culture medium to a suitable starting concentration and subsequently titrated-out on to microtitre plates in the 2nd stage over 6-7 steps. After the addition of the parasite culture (0.7% parasitemia in 2.5% erythrocyte suspension) the test plates are incubated under the conditions given above for 72 h. The parasite growth in the different preparation concentrations is determined using [G-^3 H]-hypoxanthin incorporation compared to untreated control cultures on the same test plates. The 50% growth inhibition (IC50) is calculated according to logit regression analysis from the resulting dosage-activity curve.
(§6) The preparations are tested on at least one chloroquine-resistant and one chloroquine-sensitive Plasmodium falciparum strain. Additional sensitive and resistant strains are included for further characterization.

Another experiment deals with Plasmodium berghei. Put plainly: animal or person. Format: in vivo, Plasmodium berghei (strain ANKA) in mice. The following applies: Plasmodium berghei. Here is the method:
Test method for the determination of the activity against Plasmodium berghei in vivo
The preparations are tested on mice infected with malaria pathogens (Plasmodium berghei). Male albino mice (IBM:MORO(SPF), FUELLINSDORF) weighing about 25 g are used as the test animals. They are kept in climatized rooms at 21-22° C. in groups of 5 animals per cage. They receive ad libitum a diet feed with a low PABA content (NAFAG FUTTER " No. 9009 PAB-45, PABA content 45 mg/kg) and drinking water. On the first day of the test (D0) the test animals are infected with Plasmodium berghei (strain ANKA). For this there is used heparinized blood of a donor mouse with about 30% parasitemia, which is diluted with physiological saline such that it contains 10^8 parasitized erythrocytes per ml. 0.2 ml of this suspension is injected intravenously (i.v.) into the mice to be treated and into the control mice.
The substances to be tested are dissolved or suspended in distilled water or in a mixture of 7% Tween 80, 3% alcohol (96%) and water. Usually, 0.25 ml of this solution or suspension is administered once subcutaneously and perorally to groups of 5 test animals. Treatment is effected 24 hours after the infection. 10 control animals are treated in the same manner with solvent or suspension medium per test.
All substances are tested in a first test in a single dosage of 10 mg/kg. Only those substances which in this test (10 mg/kg) have shown a parasitaemia reduction of 90% are used for the titration. Suitable dilutions of the test substance can be used to obtain an accurate titration of the activity.
48 hours after the treatment (D+3) blood smears are prepared from all animals using blood from tail veins and are stained with giemsa. […] The difference in the average values of the infection rates of control group (100%) and treated groups is calculated and expressed as a percentage reduction (GI%). The ED50 or ED90 is determined mathematically by means of the JMP programme (nonlinear fit). The ED50 (ED90) in mg/kg is that dose which after single administration reduces the average erythrocyte infection rate by 50% (90%) in comparison to the control group.

The subject of experiment [1] is Plasmodium falciparum strain NF54. Put plainly: Growth inhibition of Plasmodium falciparum NF54 (chloroquine-sensitive) in vitro, [G-3H]-hypoxanthin incorporation. The format is cell-based. Particulars: read-out: IC50 for P. falciparum NF54.
From the text: as §1, §2, §3, §4, §5, §6

The mark [2] stands for this setting: po, single peroral dose of 10 mg/kg, mice, blood smears 48 h after treatment, read-out: Growth inhibition in % after po administration (GI%, percentage reduction of the parasitemia).
[3] abbreviates: sc, single subcutaneous dose of 10 mg/kg, mice, blood smears 48 h after treatment, read-out: Growth inhibition in % after sc administration (GI%, percentage reduction of the parasitemia).
Setting [4] is: chloroquine-sensitive strain NF54, 72 h.

Regarding `Cl.Cl.Clc1ccc(CN[C@@H]2CC[C@H](Nc3ccnc4cc(Cl)ccc34)C2)cc1` (relative stereo) [Example 68, cis-N1-(7-Chloro-quinolin-4-yl)-N3-(4-chloro-benzyl)-cyclopentane-1,3-diamine dihydrochloride], the IC50 is 0.0146 µg/mL with Plasmodium falciparum K1 and 0.0059 µg/mL in experiment [1] (setting [4]). For the same compound, in the experiment on Plasmodium falciparum K1, the Resistance index is recorded as 2.5. Further, the values for the inhibition in vivo at 10 mg/kg with Plasmodium berghei (setting [2]) and in the experiment with Plasmodium berghei (setting [3]) were 99.9% and 99.6%, respectively.
For `CCN(CC)CCCC(C)Nc1ccnc2cc(Cl)ccc12` (stereo not shown) [Chloroquine diphosphate, reference compound], the IC50 with Plasmodium falciparum K1 came out at 0.095 µg/mL; in experiment [1] (NF54, 72 h), 0.0067 µg/mL. Moreover, the Resistance index with Plasmodium falciparum K1 is 14.2. Besides, the inhibition in vivo at 10 mg/kg is 99.9% in the experiment on Plasmodium berghei (in Mus musculus, po, 48 h, read-out: Growth inhibition in % after po administration (GI%, percentage reduction of the parasitemia)) and 99.9% in the experiment on Plasmodium berghei (in Mus musculus, sc, 48 h, read-out: Growth inhibition in % after sc administration (GI%, percentage reduction of the parasitemia)).
In the case of `CC(C)(CNc1ccnc2cc(Cl)ccc12)NCc1ccc(Cl)c(Cl)c1` [Example 3, N1-(7-Chloro-quinolin-4-yl)-N2-(3,4-dichloro-benzyl)-2-methyl-propane-1,2-diamine], the IC50 in the experiment with Plasmodium falciparum K1 is 0.0183 µg/mL (≈ 0.0448 µM); in experiment [1] (setting [4]), 0.0137 µg/mL (≈ 0.0335 µM). Also, the Resistance index with Plasmodium falciparum K1 was found to be 1.3. The inhibition in vivo at 10 mg/kg came out at 96% in the experiment with Plasmodium berghei (setting [2]) and 8% in the experiment with Plasmodium berghei (setting [3]).
In the case of `CC(C)(CNc1ccnc2cc(Cl)ccc12)NCc1cccc(Cl)c1` [Example 4, N1-(7-Chloro-quinolin-4-yl)-N2-(3-chloro-benzyl)-2-methyl-propane-1,2-diamine], the IC50 amounted to 0.0088 µg/mL (≈ 0.0235 µM) in the experiment on Plasmodium falciparum K1 and 0.0091 µg/mL (≈ 0.0243 µM) in experiment [1] (setting [4]). In addition, in the experiment on Plasmodium falciparum K1, the Resistance index was 1.0. Moreover, the inhibition in vivo at 10 mg/kg worked out at 68% with Plasmodium berghei (setting [2]) and 73% with Plasmodium berghei (setting [3]).
With `CC(C)(CNc1ccnc2cc(Cl)ccc12)NCc1ccc(Cl)cc1Cl` [Example 5, N1-(7-Chloro-quinolin-4-yl)-N2-(2,4-dichloro-benzyl)-2-methyl-propane-1,2-diamine], the figures for the IC50 (in the experiment on Plasmodium falciparum K1; in experiment [1] (setting [4])) were 0.0572 µg/mL (≈ 0.14 µM) and 0.0493 µg/mL (≈ 0.121 µM), respectively. Also, in the experiment on Plasmodium falciparum K1, the Resistance index came out at 1.2. Further, the inhibition in vivo at 10 mg/kg in the experiment on Plasmodium berghei (setting [2]) came out at 83%; in the experiment with Plasmodium berghei (setting [3]) it was 69%.
In the case of `CC(C)(CNc1ccnc2cc(Cl)ccc12)NCc1ccc(F)c(Cl)c1` [Example 6, N1-(7-Chloro-quinolin-4-yl)-N2-(3-chloro-4-fluoro-benzyl)-2-methyl-propane-1,2-diamine], the IC50 is 0.0145 µg/mL (≈ 0.037 µM) with Plasmodium falciparum K1 and 0.0103 µg/mL (≈ 0.0263 µM) in experiment [1] (setting [4]). In the experiment with Plasmodium falciparum K1, the Resistance index was 1.4. Besides, the inhibition in vivo at 10 mg/kg in the experiment on Plasmodium berghei (setting [2]) was 99.7%; in the experiment on Plasmodium berghei (setting [3]), 95%.
Consider `CC(C)(CNc1ccnc2cc(Cl)ccc12)NCc1ccc(Cl)c(C(F)(F)F)c1` [Example 7, N1-(7-Chloro-quinolin-4-yl)-N2-(4-chloro-3-trifluoromethyl-benzyl)-2-methyl-propane-1,2-diamine], for which the IC50 worked out at 0.0349 µg/mL (≈ 0.0789 µM) in the experiment with Plasmodium falciparum K1 and 0.024 µg/mL (≈ 0.0543 µM) in experiment [1] (setting [4]). Also, in the experiment on Plasmodium falciparum K1, the Resistance index turned out to be 1.5. The inhibition in vivo at 10 mg/kg in the experiment on Plasmodium berghei (setting [2]) turned out to be 96%; with Plasmodium berghei (setting [3]), 54%.
`CC(C)(CNc1ccnc2cc(Cl)ccc12)NCc1cccc(C(F)(F)F)c1` [Example 8, N1-(7-Chloro-quinolin-4-yl)-N2-(3-trifluoromethyl-benzyl)-2-methyl-propane-1,2-diamine]: the IC50 in the experiment with Plasmodium falciparum K1 was determined as 0.0189 µg/mL (≈ 0.0463 µM); in experiment [1] (setting [4]), 0.0161 µg/mL (≈ 0.0395 µM). For the same compound, the Resistance index in the experiment with Plasmodium falciparum K1 amounted to 1.2. Also, the inhibition in vivo at 10 mg/kg was 99% in the experiment on Plasmodium berghei (setting [2]) and 95% in the experiment with Plasmodium berghei (setting [3]).
On to `CC(C)(CNc1ccnc2cc(Cl)ccc12)NCc1ccc(C(F)(F)F)cc1` [Example 9, N1-(7-Chloro-quinolin-4-yl)-N2-(4-trifluoromethyl-benzyl)-2-methyl-propane-1,2-diamine], for which the figures for the IC50 (with Plasmodium falciparum K1; in experiment [1] (setting [4])) were 0.0167 µg/mL (≈ 0.0409 µM) and 0.0132 µg/mL (≈ 0.0324 µM), respectively. Also, in the experiment with Plasmodium falciparum K1, the Resistance index came out at 1.3. Further, the inhibition in vivo at 10 mg/kg with Plasmodium berghei (setting [2]) came to 66%; in the experiment on Plasmodium berghei (setting [3]), 74%.
For `CC(C)(CNc1ccnc2cc(Cl)ccc12)NCc1cc(C(F)(F)F)cc(C(F)(F)F)c1` [Example 10, N1-(7-Chloro-quinolin-4-yl)-N2-(3,5-bis-trifluoromethyl-benzyl)-2-methyl-propane-1,2-diamine] the same measures were 0.0504 µg/mL (≈ 0.106 µM), 0.0517 µg/mL (≈ 0.109 µM), 1.0, 99.2% and 99.3%.
For `CC(C)(CNc1ccnc2cc(Cl)ccc12)NCc1ccncc1` [Example 11, N1-(7-Chloro-quinolin-4-yl)-N2-(pyridin-4-yl-methyl)-2-methyl-propane-1,2-diamine] the same measures were 0.048 µg/mL (≈ 0.141 µM), 0.0293 µg/mL (≈ 0.086 µM), 1.6, 99.9% and 99.8%.
On to `CC(C)(CNc1ccnc2cc(Cl)ccc12)NCc1c(Cl)cccc1Cl` [Example 12, N1-(7-Chloro-quinolin-4-yl)-N2-(2,6-dichloro-benzyl)-2-methyl-propane-1,2-diamine], for which the IC50 in the experiment on Plasmodium falciparum K1 turned out to be 0.197 µg/mL (≈ 0.482 µM); in experiment [1] (setting [4]), 0.0847 µg/mL (≈ 0.207 µM). Moreover, in the experiment on Plasmodium falciparum K1, the Resistance index worked out at 2.3. In addition, the inhibition in vivo at 10 mg/kg in the experiment with Plasmodium berghei (setting [2]) was determined as 98%; in the experiment with Plasmodium berghei (setting [3]), 4%.
Turning to `Cl.Cl.Clc1ccc2c(N[C@H]3CC[C@@H](NCCc4ccccc4)CC3)ccnc2c1` [Example 13, cis-N1-(7-Chloro-quinolin-4-yl)-N4-phenethyl-cyclohexane-1,4-diamine dihydrochloride], the values for the IC50 (in the experiment with Plasmodium falciparum K1; in experiment [1] (setting [4])) were 0.0161 µg/mL and 0.0027 µg/mL, respectively. Besides, the Resistance index in the experiment with Plasmodium falciparum K1 is on record as 6.0. For the same compound, the inhibition in vivo at 10 mg/kg with Plasmodium berghei (setting [2]) and in the experiment with Plasmodium berghei (setting [3]) was 99.9% each time.
As to `COc1cc(OC)c(CN[C@H]2CC[C@@H](Nc3ccnc4cc(Cl)ccc34)CC2)c(OC)c1.Cl.Cl` [Example 14, cis-N1-(7-Chloro-quinolin-4-yl)-N4-(2,4,6-trimethoxy-benzyl)-cyclohexane-1,4-diamine dihydrochloride], the IC50 with Plasmodium falciparum K1 came to 0.0284 µg/mL; in experiment [1] (setting [4]), 0.0048 µg/mL. In addition, the Resistance index with Plasmodium falciparum K1 was determined as 5.9. Besides, the inhibition in vivo at 10 mg/kg in the experiment on Plasmodium berghei (setting [2]) and in the experiment on Plasmodium berghei (setting [3]) was 100% in each case.
As to `COc1cc(CN[C@H]2CCCC[C@@H]2Nc2ccnc3cc(Cl)ccc23)cc(OC)c1OC.Cl.Cl` [Example 65, (1S,2S)-N1-(7-Chloro-quinolin-4-yl)-N2-(3,4,5-trimethoxy-benzyl)-cyclohexane-1,2-diamine dihydrochloride], in the experiment on Plasmodium falciparum K1, the IC50 stood at 0.0253 µg/mL and the Resistance index turned out to be 2.6. For the same compound, in experiment [1] (setting [4]), the IC50 is 0.0099 µg/mL.

The term IC50 denotes the concentration that inhibits the measured activity by half.
